Laboratory results from USRE37556E1, “Superoxide radical inhibitor” (Otsuka Pharmaceutical Co., Ltd., priority 1990, dated 2002).
Where a name gives a salt, the structure may show the parent alone.

Tested on: human neutrophilic leukocytes
Assay: Inhibition of superoxide radical (O2-) generation in FMLP-stimulated human neutrophilic leukocytes (ferricytochrome C method)
Type: cell-based
Details: Homo sapiens, Leukocyte, pH 7.4, Table 15; O2- generation, 3x10^-7 M FMLP, cytochalasin B, 37° C., pH 7.4
From the text: (1) Activity for inhibiting the generation of superoxide radical (O2^−) in human neutrophilic leukocytes
That is, a whole blood obtained from a healthy adult and treated by anticoagulation method was subjected to a dextranhypotonic treatment to obtain leukocyte cells. The leukocyte cells were then subjected to a density gradient ultracentrifugation by Ficoll-Paque to obtain a neutrophilic leukocyte fraction.
O2^− generation was examined by the ferricytochrome C method in accordance with the method of B. N. Cronstein et al. [Journal of Experimental Medicine, vol. […] Each test compound was dissolved in dimethyl sulfoxide (DMSO); the solution was added to neutrophilic leukocytes before the addition of FMLP; then, the neutrophilic leukocytes were pre-incubated at 37° C.
CCCc1cc(C(=O)O)cc(-c2csc(-c3ccc(OCC)c(OCC)c3)n2)c1O [compound 114, 4-(2-Hydroxy-3-propyl-5-carboxyphenyl)-2-(3,4-diethoxy-phenyl)thiazole] showed an IC50 of 100 nM. For CCOc1ccc(-c2nc(-c3ccc(O)c(N)c3)cs2)cc1OCC [compound 66, 4-(4-Hydroxy-3-aminophenyl)-2-(3,4-diethoxyphenyl)thiazole dihydrochloride], the IC50 was 60 nM. Compound C=CCc1cc(-c2csc(-c3ccc(OCC)c(OCC)c3)n2)cc(C(=O)O)c1O [compound 83, 4-(3-Carboxy-4-hydroxy-5-allylphenyl)-2-(3,4-diethoxyphenyl)thiazole] has an IC50 of 40 nM. CCOc1ccc(-c2nc(-c3ccc(C(=O)O)[nH]3)cs2)cc1OCC [compound 119, 2-(3,4-Diethoxyphenyl)-4-(2-carboxy-5-pyrrolyl)-thiazole] gave an IC50 of 24 nM. CCCCOc1ccc(-c2csc(-c3ccc(OCC)c(OCC)c3)n2)cc1C(=O)O [compound 137, 2-(3,4-Diethoxyphenyl)-4-(3-carboxy-4-n-butoxyphenyl)thiazole] gave an IC50 of 110 nM.

Same assay, conditions: Table 15; O2- generation, 3x10^-7 M FMLP, cytochalasin B, 37° C., pH 7.4
CCOc1ccc(-c2nc(-c3cccc(CO)n3)cs2)cc1OCC [compound 127] gave an IC50 of 20 nM. With COC(=O)C1OC(Oc2ccc(-c3csc(-c4ccc(OC)c(OC)c4)n3)cc2)C(O)C(O)C1O [compound 77, Methyl 4-[2-(3,4-dimethoxyphenyl)thiazole-4-yl]phenyl-β-D-glucopyranosidouronate] the IC50 was 800 nM. With CCOc1ccc(-c2nc(-c3ccc(O[C@@H]4O[C@H](COC(C)=O)[C@@H](OC(C)=O)[C@H](OC(C)=O)[C@H]4OC(C)=O)cc3)cs2)cc1OCC [compound 78, 2-(3,4-Diethoxyphenyl)-4-[4-(2,3,4,6-tetra-0-acetyl-β-D-glucopyranosyloxy)phenyl]thiazole] the IC50 was 1000 nM.

Tested on: not given
Assay: not given
Details: not given
In the case of CCOc1ccc(-c2nc(-c3cc(C=CC(=O)O)c(O)c(C(=O)O)c3)cs2)cc1OCC [Example 514, 2-(3,4-diethoxyphenyl)-4-[3-carboxy-4-hydroxy-5-(2-carboxyvinyl)phenyl] thiazole], the melting point is reported as 260 to 261 °C. COc1ccc(C(=O)c2nc(-c3ccc4[nH]c(=O)c(O)c(O)c4c3)cs2)cc1OC [Example 152, 2-(3,4-dimethoxybenzoyl)-4-(3,4-dihydroxycarbostyril-6-yl) thiazole] gave a melting point of 249 to 251 °C. CCOc1ccc(-c2nc(-c3ccc(N4CCOCC4)c([N+](=O)[O-])c3)cs2)cc1OCC [Example 242, 4-(4-morpholino-3-nitrophenyl)-2-(-3,4-diethoxyphenyl) thiazole] showed a melting point of 119 to 120 °C. With COc1cc(-c2nc(-c3ccc4c(c3)CCC(=O)N4)cs2)ccc1[S+](C)[O-] (stereo not drawn) [Example 149, 2-(3-methoxy-4-methylsulfinylphenyl)-4-(3,4-dihydrocarbostyril-6-yl)thiazole] the melting point was 264 to 265 °C. In the case of CCCc1cc(-c2csc(-c3ccc(OCC)c(OCC)c3)n2)cc(C(=O)O)c1O [Example 363, 2-(3,4-diethoxyphenyl)-4-(3-carboxy-4-hydroxy-5-propylphenyl)thiazole], the melting point is reported as 179 to 180 °C. COc1ccc(-c2nc(-c3cc(N)cc(N)c3)cs2)cc1OC.Cl.Cl showed a melting point of 198 to 200 °C. COc1cc(-c2nc(-c3ccc4c(c3)CCC(=O)N4)cs2)ccc1S(C)(=O)=O [Example 150, 2-(3-methoxy-4-methylsulfonylphenyl)-4-(3,4-dihydrocarbostyril-6-yl)thiazole] gave a melting point of 284 to 286 °C. For COc1ccc(-c2nc(-c3ccc4oc(=O)[nH]c4c3)cs2)cc1OC [Example 145, 2-(3,4-dimethoxyphenyl)-4-(benzoxazol-2-on-5-yl) thiazole], the melting point was 271 to 272 °C. CCOc1ccc(-c2nc(-c3cccc(C(=O)O)c3)cs2)cc1OCC [Example 362, 2-(3,4-diethoxyphenyl)-4-(3-carboxyphenyl)thiazole] showed a melting point of 192 to 192.8 °C. Work on CCOc1ccc(-c2nc(C3=CCN(C)CC3)cs2)cc1OCC yielded a melting point of 81.2 to 83.6 °C. Work on CCOc1ccc(-c2nc(-c3ccc(O[C@@H]4O[C@H](CO)[C@@H](O)[C@H](O)[C@H]4O)cc3)cs2)cc1OCC [Example 237, 4-[4-(β-D-glucopyranosyloxy)-phenyl]-2-(3,4-diethoxyphenyl)thiazole] yielded a melting point of 138 to 140 °C. Work on CCOc1ccc(-c2nc(-c3cc4c(c(C(=O)O)c3)OC(C)(C)C4)cs2)cc1OCC [Example 465, 2-(3,4-diethoxyphenyl)-4-(2,2-dimethyl-7-carboxy-2,3-dihydrobenzofuran-5-yl)thiazole] yielded a melting point of 106 to 107 °C. CCOc1ccc(-c2nc(-c3ccc(OS(=O)(=O)C(F)(F)F)c(C(=O)OC)c3)cs2)cc1OCC [Example 457, 2-(3,4-diethoxyphenyl)-4-(3-methoxycarbonyl-4-trifluoromethanesulfonyloxyphenyl) thiazole] gave a melting point of 112 to 113 °C. Compound CCOc1ccc(-c2nc(-c3ccc(O)c(CC)c3)c(CN(C)C)s2)cc1OCC.Cl.Cl has a melting point of 163 to 168 °C. CCOC(=O)C=Cc1cc(-c2csc(-c3ccc(OCC)c(OCC)c3)n2)cc(C(=O)OCOC)c1OCOC [Example 512, 2-(3,4-diethoxyphenyl)-4-[3-methoxymethoxycarbonyl-4-methoxymethoxy-5-(2-ethoxycarbonylvinyl)phenyl]thiazole] showed a melting point of 94 to 96 °C. For COc1ccc(-c2nc(-c3ccc4c(c3)CCCN4)cs2)cc1OC.Cl, the melting point was 156 to 158 °C. In the case of CCOc1ccc(-c2nc(-c3cccc(CO)n3)cs2)cc1OCC [Example 454, 2-(3,4-diethoxyphenyl)-4-(2-hydroxymethyl-6-pyridyl)thiazole], the melting point is reported as 109 to 113 °C. CCOc1ccc(-c2nc(-c3ccc(OC(C)=O)c(C(=O)O)c3)cs2)cc1OCC [Example 364, 2-(3,4-diethoxyphenyl)-4-(3-carboxy-4-acetyloxyphenyl)thiazole] showed a melting point of 178 to 179 °C. CCOc1ccc(-c2nc(-c3cc(C(=O)O)c(O)cc3O)cs2)cc1OCC [Example 360, 2-(3,4-diethoxyphenyl)-4-(3-carboxy-4,6-dihydroxyphenyl)thiazole] gave a melting point of 233 to 234 °C. For CCOc1ccc(-c2nc(-c3cccc(CN(C)C)n3)cs2)cc1OCC.Cl.Cl, the melting point was 195 °C (dec.). CCOc1ccc(-c2nc(-c3ccc(S)cc3C(=O)O)cs2)cc1OCC [Example 355, 2-(3,4-diethoxyphenyl)-4-(4-mercapto-2-carboxyphenyl)-thiazole] gave a melting point of 283 to 285 °C. Work on O=C1CCc2cc(-c3csc(-c4ccc(C(=O)O)cc4)n3)ccc2N1 [Example 147, 2-(4-carboxyphenyl)-4-(3,4-dihydrocarbostyril-6-yl)thiazole] yielded a melting point of at least 300 °C. Compound COc1ccc(-c2nc(-c3ccc(OS(=O)(=O)O)cc3)cs2)cc1OC [Example 238, 4-(4-hydroxysulfonyloxyphenyl)-2-(3,4-dimethoxyphenyl)thiazole] has a melting point of 248 to 249 °C. In the case of CCOc1ccc(-c2nc(-c3ccc(O[Si](C)(C)C(C)(C)C)c(CO)c3)cs2)cc1OCC, the melting point is reported as 101.3 to 103 °C. Compound COc1ccc(C(O)c2nc(-c3ccc4[nH]c(=O)c(O)c(O)c4c3)cs2)cc1OC (stereo not drawn) [Example 151, 2-[1-(3,4-dimethoxyphenyl)-1-hydroxymethyl]-4-(3,4-dihydroxycarbostyril-6-yl)thiazole] has a melting point of 188 to 189 °C.
